Results reported in ChEMBL document CHEMBL5137008, “Recent advances of antitumor shikonin/alkannin derivatives: A comprehensive overview focusing on structural classification, synthetic approaches, and mechanisms of action” (Eur J Med Chem, 2022).
Values after ≈ are worked out from the molar mass of the structure shown.

Experiments:
[1] = system: HeLa; experiment: Antiproliferative activity against human HeLa cells assessed as inhibition of cell proliferation incubated for 20 hrs by MTT assay; format: functional, cell-based
[2] = system: MCF7; experiment: Antiproliferative activity against human MCF7 cells assessed as inhibition of cell proliferation incubated for 20 hrs by MTT assay; format: functional, cell-based; conditions: MCF7, 20 h
[3] = system: HepG2; experiment: Antiproliferative activity against human HepG2 cells assessed as inhibition of cell proliferation incubated for 20 hrs by MTT assay; format: functional, cell-based; conditions: HepG2, 20 h
[4] = Antiproliferative activity against human BGC cells assessed as inhibition of cell proliferation incubated for 20 hrs by MTT assay; format: functional, cell-based
[5] = system: A549; experiment: Antiproliferative activity against human A549 cells assessed as inhibition of cell proliferation incubated for 20 hrs by MTT assay; format: functional, cell-based; conditions: A549, 20 h
[6] = system: L02; experiment: Antiproliferative activity against human L02 cells assessed as inhibition of cell proliferation incubated for 20 hrs by MTT assay; format: functional, cell-based; conditions: L02, 20 h
[7] = Cytotoxicity against African green monkey Vero cells incubated for 24 hrs by MTT assay; format: toxicity, cell-based, Chlorocebus sabaeus
[8] = system: HepG2; experiment: Antiproliferative activity against human HepG2 cells incubated for 24 hrs by MTT assay; format: functional, cell-based; conditions: HepG2, 24 h
[9] = Cytotoxicity against human MCF-10A incubated for 24 hrs by MTT assay; format: toxicity, cell-based; conditions: MCF-10A cells
[10] = Antitubulin activity against bovine brain tubulin polymerization preincubated with compound followed by GTP addition by turbidimetry-based spectrophotometric method; parameters: species or system Bos taurus
[11] = system: MDA-MB-231; experiment: Antiproliferative activity against human MDA-MB-231 cells incubated for 24 hrs by MTT assay; format: functional, cell-based; conditions: MDA-MB-231, 24 h
[12] = system: MG-63; experiment: Antiproliferative activity against human MG-63 cells incubated for 24 hrs by MTT assay; format: functional, cell-based; conditions: MG-63, 24 h
[13] = system: MCF7; experiment: Antiproliferative activity against human MCF7 cells incubated for 24 hrs by MTT assay; format: functional, cell-based; conditions: MCF7, 24 h
[14] = Cytotoxicity against human L02 incubated for 24 hrs by MTT assay; format: toxicity, cell-based; conditions: L02 cells
[15] = system: B16-F10; experiment: Antiproliferative activity against mouse B16-F10 cells incubated for 24 hrs by MTT assay; format: functional, cell-based; conditions: B16-F10, 24 h
[16] = system: L1210; experiment: Anticancer activity against mouse L1210 cells; format: functional; conditions: read-out: ED50 (the source's name)
[17] = system: Sarcoma-180; experiment: Antitumor activity against mouse Sarcoma-180 cells xenografted in ip dosed ICR mouse assessed as tumor growth inhibition rate administered daily for 7 days relative to control; format: functional; conditions: time 7 day
[18] = system: A549; experiment: Anticancer activity against human A549 cells; format: functional; conditions: read-out: ED50 (the source's name)
[19] = Cytotoxicity against human skin fibroblast cells incubated for 24 hrs by MTT assay; format: toxicity, cell-based
[20] = system: K562; experiment: Anticancer activity against human K562 cells assessed as reduction in cell viability for 72 hrs by MTT assay; format: functional, cell-based; conditions: K562, 72 h
[21] = Cytotoxicity against human skin fibroblast cells assessed as reduction in cell viability incubated for 72 hrs by MTT assay; format: toxicity, cell-based
[22] = system: MCF7; experiment: Anticancer activity against human MCF7 cells assessed as reduction in cell viability for 72 hrs by MTT assay; format: functional, cell-based; conditions: MCF7, 72 h
[23] = system: HCT-15; experiment: Anticancer activity against human HCT-15 cells assessed as reduction in cell viability for 72 hrs by MTT assay; format: functional, cell-based; conditions: HCT-15, 72 h
[24] = system: A549; experiment: Antiproliferative activity against human A549 cells assessed as inhibition of cell growth incubated for 24 hrs in presence of foetal bovine serum by MTT assay; format: functional, cell-based; conditions: A549, 24 h
[25] = Anticancer activity against human A875 cells assessed as inhibition of cell growth incubated for 24 hrs by MTT assay; format: functional, cell-based; conditions: A875, 24 h
[26] = system: HeLa; experiment: cells; conditions: Homo sapiens, 24 h
[27] = Cytotoxicity against human L02 cells assessed as inhibition of cell growth incubated for 24 hrs in presence of foetal bovine serum by MTT assay; format: toxicity, cell-based
[28] = Cytotoxicity against human HEK293T cells assessed as inhibition of cell growth incubated for 24 hrs in presence of foetal bovine serum by MTT assay; format: toxicity, cell-based, HEK-293T
[29] = system: MCF7; experiment: Antiproliferative activity against human MCF7 cells assessed as inhibition of cell growth incubated for 24 hrs in presence of foetal bovine serum by MTT assay; format: functional, cell-based; conditions: MCF7, 24 h
[30] = system: HepG2; experiment: Anticancer activity against human HepG2 cells assessed as inhibition of cell growth incubated for 24 hrs by MTT assay; format: functional, cell-based; conditions: HepG2, 24 h
[31] = system: SBcl2; experiment: Antitumor activity against human SBcl2 cells assessed as reduction in cell viability incubated for 72 hrs by XTT assay; format: functional, cell-based; conditions: SBcl2, 72 h
[32] = system: MUGMel2; experiment: Antitumor activity against human MUG-Mel2 cells assessed as reduction in cell viability incubated for 72 hrs by XTT assay; format: functional, cell-based; conditions: MUGMel2, 72 h
[33] = Antitumor activity against human WM9 cells assessed as reduction in cell viability incubated for 72 hrs by XTT assay; format: functional, cell-based; conditions: WM9, 72 h
[34] = system: WM164; experiment: Antitumor activity against human WM164 cells assessed as reduction in cell viability incubated for 72 hrs by XTT assay; format: functional, cell-based; conditions: WM164, 72 h
[35] = system: U-87 MG; experiment: Anticancer activity against human U87 cells assessed as inhibition of cell proliferation incubated for 48 hrs by MTT assay; format: functional, cell-based, U-87MG ATCC
[36] = system: L1210; experiment: Anticancer activity against mouse L1210 cells assessed as reduction in cell viability for 72 hrs by MTT assay; format: functional; conditions: read-out: ED50 (the source's name)
[37] = system: SMMC-7721; experiment: Anticancer activity against human SMMC-7721 cells assessed as inhibition of cell proliferation incubated for 48 hrs by MTT assay; format: functional, cell-based; conditions: SMMC-7721, 48 h
[38] = system: MGC-803; experiment: Anticancer activity against human MGC-803 cells assessed as inhibition of cell proliferation incubated for 48 hrs by MTT assay; format: functional, cell-based; conditions: MGC-803, 48 h
[39] = system: SNU1; experiment: Anticancer activity against human SNU1 cells assessed as reduction in cell viability for 72 hrs by MTT assay; format: functional, cell-based; conditions: SNU1, 72 h
[40] = system: SGC-7901; experiment: Anticancer activity against human SGC-7901 cells assessed as inhibition of cell proliferation incubated for 48 hrs by MTT assay; format: functional, cell-based; conditions: SGC-7901, 48 h
[41] = system: MGC-803; experiment: Anticancer activity against human MGC-803 cells incubated for 48 hrs by MTT assay; format: functional, cell-based; conditions: MGC-803, 48 h
[42] = system: U-87 MG; experiment: Anticancer activity against human U87 cells incubated for 48 hrs by MTT assay; format: functional, cell-based, U-87MG ATCC
[43] = system: HeLa; experiment: Antiproliferative activity against human HeLa cells assessed as inhibition of cell growth incubated for 24 hrs by MTT assay; format: functional, cell-based
[44] = system: A549; experiment: Antiproliferative activity against human A549 cells assessed as inhibition of cell growth incubated for 24 hrs by MTT assay; format: functional, cell-based; conditions: A549, 24 h
[45] = system: SGC-7901; experiment: Anticancer activity against human SGC-7901 cells incubated for 48 hrs by MTT assay; format: functional, cell-based; conditions: SGC-7901, 48 h
[46] = system: SMMC-7721; experiment: Anticancer activity against human SMMC-7721 cells incubated for 48 hrs by MTT assay; format: functional, cell-based; conditions: SMMC-7721, 48 h
[47] = system: MDA-MB-231; experiment: Antiproliferative activity against human MDA-MB-231 cells assessed as inhibition of cell growth incubated for 24 hrs by MTT assay; format: functional, cell-based; conditions: MDA-MB-231, 24 h
[48] = Cytotoxicity against human L02 cells incubated for 48 hrs by MTT assay; format: toxicity, cell-based
[49] = system: Fibroblast; experiment: Cytotoxicity against human skin fibroblast cells incubated for 72 hrs by MTT assay; format: functional, cell-based
[50] = system: MCF7; experiment: Anticancer activity against human MCF7 cells incubated for 72 hrs by MTT assay; format: functional, cell-based; conditions: MCF7, 72 h
[51] = system: HCT-15; experiment: Anticancer activity against human HCT-15 cells incubated for 72 hrs by MTT assay; format: functional, cell-based; conditions: HCT-15, 72 h
[52] = system: MGC-803; experiment: Anticancer activity against human MGC-803 cells incubated for 72 hrs by MTT assay; format: functional, cell-based; conditions: MGC-803, 72 h
[53] = system: Ca9-22; experiment: Cytotoxicity against human Ca9-22 cells assessed as reduction in cell viability incubated for 48 hrs by MTT assay; format: functional, cell-based; conditions: Ca9-22, 48 h
[54] = system: Ca9-22; experiment: Cytotoxicity against human Ca9-22 cells assessed as reduction in cell viability incubated for 24 hrs by MTT assay; format: functional, cell-based; conditions: Ca9-22, 24 h

SMILES: CC(C)=CC[C@@H](OC(=O)[C@@H](C)N1C(=O)c2ccccc2C1=O)C1=CC(=O)c2c(O)ccc(O)c2C1=O
- IC50 [1]: 1.93 µM
- IC50 [2]: 2.55 µM
- IC50 [3]: 5.35 µM
- IC50 [4]: 13.3 µM
- IC50 [5]: > 100 µM
- IC50 [6]: > 100 µM

SMILES: CC(=O)O[C@@H]1[C@@H](OC(C)=O)[C@H](Sc2cc(O)c3c(c2O)C(=O)C=C([C@@H](CC=C(C)C)SC2OC[C@@H](OC(C)=O)[C@H](OC(C)=O)[C@H]2OC(C)=O)C3=O)OC[C@H]1OC(C)=O (some centres not stated)
- IC50 at 24 h [7]: 82.5 µM
- IC50 [8]: 1.22 µM
- IC50 at 24 h [9]: 78.1 µM
- IC50 [10]: 4.67 µM
- IC50 [11]: 10.6 µM
- IC50 [12]: 1.22 µM
- IC50 [13]: 2.37 µM
- IC50 at 24 h [14]: 132 µM
- IC50 [15]: 4.53 µM

SMILES: CO/N=C/c1cc(O)c2c(c1O)C(=O)C=CC2=O
- EC50 [16]: 0.109 mg/L (≈ 0.441 µM)
- T/C [17]: 318%
- EC50 [18]: > 10 mg/L

SMILES: CC(C)=CC[C@H](O)C1=CC(=O)c2c(O)ccc(O)c2C1=O [ALKANNIN]
- IC50 at 24 h [19]: 1.8 µM
- IC50 [20]: 1.5 µM
- IC50 at 72 h [21]: 1.5 µM
- IC50 [22]: 2.62 µM
- IC50 [23]: 1.11 µM

SMILES: COc1cc2c(c(OC)c1OC)-c1ccc(OC)c(=O)cc1[C@@H](NC(C)=O)CC2 [COLCHICINE]
- IC50 [24]: 0.47 µM
- IC50 [25]: 0.75 µM
- IC50 [26]: 17.8 µM
- IC50 at 24 h [27]: 2.3 µM
- IC50 at 24 h [28]: 1.03 µM
- IC50 [29]: 0.22 µM
- IC50 [30]: 4.65 µM

SMILES: CC(C)=CC[C@@H](OC(=O)C=C(C)C)C1=CC(=O)c2c(O)ccc(O)c2C1=O [DIMETHYLACRYLSHIKONIN]
- IC50 [31]: 1.1 µM
- IC50 [32]: 7.2 µM
- IC50 [33]: 2.7 µM
- IC50 [34]: 8.3 µM

SMILES: COc1cccc2c1C(=O)c1c(O)c3c(c(O)c1C2=O)C[C@@](O)(C(=O)CO)C[C@@H]3O[C@H]1C[C@H](N)[C@H](O)[C@H](C)O1.Cl [DOXORUBICIN HYDROCHLORIDE]
- IC50 [35]: 0.57 µM
- EC50 [36]: 0.07 mg/L
- EC50 [16]: 0.016 mg/L
- IC50 [37]: 0.46 µM
- IC50 [38]: 0.48 µM
- IC50 [39]: 2.01 µM
- IC50 [40]: 0.72 µM
- T/C [17]: 315%
- EC50 [18]: 1.01 mg/L

SMILES: COc1cccc2c1C(=O)c1c(O)c3c(c(O)c1C2=O)C[C@@](O)(C(=O)CO)C[C@@H]3O[C@H]1C[C@H](N)[C@H](O)[C@H](C)O1 [DOXORUBICIN]
- IC50 [41]: 0.48 µM
- IC50 [42]: 0.57 µM
- IC50 [43]: 4.61 µM
- IC50 [44]: 5.13 µM
- IC50 [45]: 0.72 µM
- IC50 [46]: 0.46 µM
- IC50 [47]: 4.21 µM
- IC50 at 48 h [48]: > 100 µM

SMILES: O=c1[nH]cc(F)c(=O)[nH]1 [FLUOROURACIL]
- IC50 [49]: > 50 µM
- IC50 [50]: 29.5 µM
- IC50 [51]: 8.24 µM
- IC50 [52]: > 50 µM

SMILES: CC(C)=CC[C@@H](OC(=O)C(C)C)C1=CC(=O)c2c(O)ccc(O)c2C1=O [ISOBUTYLSHIKONIN]
- IC50 [53]: 1.8 µM
- IC50 [54]: 1.98 µM
